Where “and” joins values, the source holds several entries; their conditions need not be identical. Equal entries are not always repeated.
Tests used:
[1] = LC-HRMS analysis, enzymatic assay buffer + probe without enzyme; details: 1 h
Experimental: These analyses were carried out by using UPLC-HRMS procedure with Vanquish UPLC system coupled to a Thermo Scientific Q-Exactive Plus, operating in negative electrospray ionization mode. The chromatographic separation was carried out using a Phenomenex Synergi 4 µ Polar-RP 80 A (150 × 2 mm) equipped with a Phenomenex Polar-RP (4 mm × 2 mm) security guard column. The mobile phase consisted of A: acetonitrile 0.1% formic acid and B: 0.1% formic acid. We used a linear elution gradient, starting from 80% of A to 5% A in 3 min, 3 min at 5% A, an equilibration of 4 min for a total run time of 10.00 min, at 300 µl/min flow rate. The autosampler temperature was set at 15 °C, the injection volume was 5 µl and column was maintained at 40 °C. […] Before injecting the samples, the blanks in the list were analyzed and every biological sample was analyzed in duplicate. The biological samples analyzed were as follow: (1) Enzymatic assay Buffer; (2) Enzymatic assay Buffer + NAD^+; (3) Enzymatic assay Buffer + Probe 10 or Probe 11; (4) Enzymatic assay Buffer + ALDH1A1; (5) Enzymatic assay Buffer + ALDH1A2; (6) Enzymatic assay Buffer + ALDH1A3; (7) Enzymatic assay Buffer + ALDH1A1 + Probe 10 or Probe 11; (8) Enzymatic assay Buffer + ALDH1A2 + Probe 10 or Probe 11; (9) Enzymatic assay Buffer + ALDH1A3 + Probe 10 or Probe 11. […]

[2] = test system: patient-derived glioma cell 3054; assay: Fluorescent microscopy of probe in cells; type: cell-based, human; details: 10 µM
[3] = test system: patient-derived glioma cell 3060; assay: Fluorescent microscopy of probe in cells; type: cell-based, human; details: 10 µM
[4] = test system: HEK293T cells; assay: Fluorescent microscopy of probe in cells; type: cell-based, human; details: 10 µM, 2 h (Fig. 5g)
Experimental: In total, 20,000 cells/ml of U87MG, HEK293T, hASTRO and 4T1 were seeded onto glass cover slips in 24-well plates. The cells incubated at 37 °C in a 5% CO2 atmosphere overnight. Cells were washed with 1 ml of PBS buffer two times, then a 10 μM solution of probes was added to each well for 2 h. For nuclei staining, 1 µg/ml of DAPI was added the last 15 min of treatment. The cover slips were removed and washed with PBS buffer, and fixed with 0.5 ml of 4% formaldehyde solution for 10 min. The cover slips were washed with 1 ml of PBS, then slides were prepared using Mounting Media (Merck Life Science). Fluorescence images were acquired using a Leica THUNDER Imager 3D Live Cell (Leica Microsystems, Wetzlar, Germany) microscope equipped with an S Fluor 40×/1.3 objective using the LAS X software.

[5] = test system: U87MG, 3054, 3060, HEK293T, 4T1, human fetal astrocytes; assay: Cell viability (MTT assay), all cell lines of Fig. 6a; type: cell-based; details: 10 µM, 72 h
Experimental: In total, 10 × 10^5 U87MG human glioblastoma, patient-derived glioma cells 3054 and 3060, HEK293T human embryonic kidney, 4T1 murine mammary carcinoma, human fetal astrocytes cell lines were plated in their respective medium and treated for 72 h with our fluorescent probe 10 and 11, solubilized in DMSO in a final concentration of […]. We treated controls with DMSO in the same final concentration and we compared the viability of each treatment to controls. The viability of cells was measured using the 3-(4,5-dimethylthiazol-2-yl)-2,5-diphenyltetrazolium assay (MTT assay)[23].

Structure (SMILES): COc1cc(/C=C/C(O)=C/C(=O)/C=C/c2ccc(OCc3cn(CCOc4ccc(C=O)cc4)nn3)c(OC)c2)ccc1O [Probe 10]
- AREA TIC of Probe 10 [1]: 9480149 and 10113371 and 16727419 and 14473716
- fluorescence in cells ([2]; 2 h): can determine fluorescence
- If ROI ([2]; 3054, 2 h (Fig. 5g)): 223.52 a.u. and 222.87 a.u. and 254.268 a.u. and 245.65 a.u. and 230.548 a.u.
- fluorescence in cells ([3]; 2 h): can determine fluorescence
- If ROI ([3]; 3060, 2 h (Fig. 5g)): 254.68 a.u. and 232.45 a.u. and 200.36 a.u. and 210.52 a.u. and 200.45 a.u.
- If ROI [4]: 64.441 a.u. and 43.961 a.u. and 59.771 a.u. and 72.091 a.u. and 46.461 a.u.
- cell mortality [5]: unable to induce cell mortality

Source: article PMC9437101, “Curcumin-based-fluorescent probes targeting ALDH1A3 as a promising tool for glioblastoma precision surgery and early diagnosis” (Communications Biology, 2022)
